Measured values taken from ChEMBL document CHEMBL1201862, “PubChem BioAssay data set” (2004).
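Protocol summary: plate cells (96-well), add compound at 5 concentrations, incubate 48 h, interpolate endpoints linearly. GI50 marks 50% less growth.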 Active and inactive are the calls of the source. No stated cut-off is given here; in the data, active = GI50 up to about 1.1 µM and inactive = higher.

Experiments:
Assay in all cases: inhibition of tumour cell growth, NCI panel, 48 h
[1] = test system: BT-549
[2] = test system: DU-145
[3] = test system: EKVX
[4] = test system: HCC 2998
[5] = test system: HCT-116
[6] = test system: HL-60
[7] = test system: LOX IMVI
[8] = test system: M14
[9] = test system: MCF7
[10] = test system: OVCAR-4
[11] = test system: PC-3
[12] = test system: SF-295
[13] = test system: SF-539
[14] = test system: SK-MEL-5
[15] = test system: SK-OV-3
[16] = test system: SNB-75
[17] = test system: TK-10
[18] = test system: UACC-62
[19] = test system: CAKI-1

| Compound | GI50 [1] | GI50 [2] | GI50 [3] | GI50 [4] | GI50 [5] | GI50 [6] | GI50 [7] | GI50 [8] | GI50 [9] | GI50 [10] | GI50 [11] | GI50 [12] | GI50 [13] | GI50 [14] | GI50 [15] | GI50 [16] | GI50 [17] | GI50 [18] | GI50 [19] |
| --- | --- | --- | --- | --- | --- | --- | --- | --- | --- | --- | --- | --- | --- | --- | --- | --- | --- | --- | --- |
| C(/Cc1ccc2c(c1)OCO2)=N\N=C1NCCCCN1 | > 100 µM (inactive) | > 100 µM (inactive) | 50 µM (inactive) | 28.2 µM (inactive) | 64.7 µM (inactive) | > 100 µM (inactive) | 55.5 µM (inactive) | 16.4 µM (inactive) | 88.3 µM (inactive) | > 100 µM (inactive) | 86.1 µM (inactive) | 51.5 µM (inactive) | > 100 µM (inactive) | 25.4 µM (inactive) | 27.9 µM (inactive) | 44.8 µM (inactive) | > 100 µM (inactive) | > 100 µM (inactive) |  |
| COC(=O)C1(CCCCl)CCCN1C(=O)OC(C)(C)C (configuration not stated) | > 100 µM (inactive) | > 100 µM (inactive) | > 100 µM (inactive) | > 100 µM (inactive) | > 100 µM (inactive) |  | > 100 µM (inactive) |  | > 100 µM (inactive) | > 100 µM (inactive) | > 100 µM (inactive) | > 100 µM (inactive) |  | > 100 µM (inactive) | > 100 µM (inactive) | > 100 µM (inactive) | > 100 µM (inactive) | > 100 µM (inactive) | > 100 µM (inactive) |
| CNC(=O)N(CCC#N)CCN(CCN(C(=O)NC)c1ccccc1)C(=O)NC | > 100 µM (inactive) | > 100 µM (inactive) | > 100 µM (inactive) | > 100 µM (inactive) | > 100 µM (inactive) |  | > 100 µM (inactive) | > 100 µM (inactive) | > 100 µM (inactive) | > 100 µM (inactive) | > 100 µM (inactive) | > 100 µM (inactive) | > 100 µM (inactive) | > 100 µM (inactive) | > 100 µM (inactive) | > 100 µM (inactive) | > 100 µM (inactive) | > 100 µM (inactive) | > 100 µM (inactive) |
| CN(C)N1C(=O)c2ccccc2NC1c1ccccc1 (configuration not stated) | > 100 µM (inactive) | > 100 µM (inactive) | > 100 µM (inactive) | > 100 µM (inactive) | > 100 µM (inactive) |  | > 100 µM (inactive) | > 100 µM (inactive) | > 100 µM (inactive) | > 100 µM (inactive) | > 100 µM (inactive) | > 100 µM (inactive) | > 100 µM (inactive) | > 100 µM (inactive) | > 100 µM (inactive) | > 100 µM (inactive) | > 100 µM (inactive) | > 100 µM (inactive) | > 100 µM (inactive) |
| COC(=O)c1ccc(NC(=O)O/N=C(\Cl)C(C)C)cc1 | 2.67 µM (inactive) | 18.5 µM (inactive) | 3.22 µM (inactive) | 14.7 µM (inactive) | 5.61 µM (inactive) | 1.36 µM (inactive) | 1.74 µM (inactive) | 2.99 µM (inactive) | 5.7 µM (inactive) | 18.1 µM (inactive) | 17.3 µM (inactive) | 17.7 µM (inactive) |  | 4.53 µM (inactive) | 17.8 µM (inactive) | 7.78 µM (inactive) | 3.05 µM (inactive) | 13.1 µM (inactive) | 1.69 µM (inactive) |
| CNC(=O)OCC1=C(COC(=O)NC)C(C)N(c2ccccc2)C1 (configuration not stated) | 50.9 µM (inactive) | 54.5 µM (inactive) | 46.1 µM (inactive) | 25.2 µM (inactive) | 39.9 µM (inactive) | 21.7 µM (inactive) | 32.7 µM (inactive) | 30.1 µM (inactive) | 20.8 µM (inactive) | 37.8 µM (inactive) | 40.5 µM (inactive) | 33.7 µM (inactive) | 23.3 µM (inactive) | 17.1 µM (inactive) | 42.4 µM (inactive) | 39.4 µM (inactive) | 24.5 µM (inactive) | 26.2 µM (inactive) |  |
| COc1cc(/C=C2\C(=O)N(Cc3ccccc3)C(c3ccccc3)S2(=O)=O)cc(OC)c1OC (configuration not stated) | 36.3 µM (inactive) | 91.6 µM (inactive) | 17.1 µM (inactive) | > 100 µM (inactive) | 17.6 µM (inactive) | 5.13 µM (inactive) | 27.5 µM (inactive) | 52.7 µM (inactive) | 26.3 µM (inactive) | 17.5 µM (inactive) | 43 µM (inactive) | 27 µM (inactive) |  | 12 µM (inactive) | > 100 µM (inactive) |  | 36.1 µM (inactive) | 35.2 µM (inactive) | > 100 µM (inactive) |
| CC(C)(C)c1ccc2c(c1)C#Cc1cc3c(cc1OCCCO2)C#Cc1cc(C(C)(C)C)ccc1OCCCO3 | 1.72 µM (inactive) | > 100 µM (inactive) | > 100 µM (inactive) | > 100 µM (inactive) | > 100 µM (inactive) | > 100 µM (inactive) | > 100 µM (inactive) | > 100 µM (inactive) | > 100 µM (inactive) | > 100 µM (inactive) | > 100 µM (inactive) | > 100 µM (inactive) | > 100 µM (inactive) | > 100 µM (inactive) | > 100 µM (inactive) |  | > 100 µM (inactive) | > 100 µM (inactive) | > 100 µM (inactive) |
| Cc1cccc(/C=N/NC(=S)Nc2ccc(Cl)cc2)n1 | 7.14 µM (inactive) | 3.31 µM (inactive) | 2.41 µM (inactive) | 7.8 µM (inactive) | 1.47 µM (inactive) |  | 1.04 µM (active) | 1.08 µM (active) | 0.607 µM (active) | 4.78 µM (inactive) | 1.94 µM (inactive) | 2.02 µM (inactive) | 2.52 µM (inactive) | 0.993 µM (active) | 1.8 µM (inactive) | 0.741 µM (active) | 11.6 µM (inactive) | 0.643 µM (active) | 1.7 µM (inactive) |
| O=C(O)CSCc1cc2c(O)c(c1)Cc1cc(CSCC(=O)O)cc(c1O)Cc1cc(CSCC(=O)O)cc(c1O)Cc1cc(CSCC(=O)O)cc(c1O)C2 | 29 µM (inactive) | > 100 µM (inactive) | > 100 µM (inactive) | > 100 µM (inactive) | > 100 µM (inactive) | > 100 µM (inactive) | > 100 µM (inactive) | > 100 µM (inactive) | > 100 µM (inactive) | > 100 µM (inactive) | > 100 µM (inactive) | > 100 µM (inactive) | > 100 µM (inactive) |  | > 100 µM (inactive) |  | > 100 µM (inactive) |  | > 100 µM (inactive) |
| Cc1ccc(S(=O)(=O)c2ccc([N+](=O)[O-])o2)cc1 | 2.51 µM (inactive) | 3.66 µM (inactive) | 3.24 µM (inactive) | 4.83 µM (inactive) | 1.64 µM (inactive) |  | 1.14 µM (inactive) | 1.83 µM (inactive) | 2.55 µM (inactive) | 2.27 µM (inactive) | 1.6 µM (inactive) | 19.8 µM (inactive) | 1.91 µM (inactive) | 11 µM (inactive) | 18.7 µM (inactive) | 5.25 µM (inactive) | 1.57 µM (inactive) | 2.32 µM (inactive) | 0.597 µM (active) |
| O=c1[nH]c(=O)n([C@H]2C[C@H](O)[C@@H](CO)O2)cc1Br [BROXURIDINE] | > 100 µM (inactive) | > 100 µM (inactive) | > 100 µM (inactive) | > 60.3 µM (inactive) | > 94 µM (inactive) |  | > 97.1 µM (inactive) | > 86.7 µM (inactive) | 17.7 µM (inactive) | > 100 µM (inactive) | > 100 µM (inactive) | > 100 µM (inactive) | > 100 µM (inactive) | > 100 µM (inactive) | > 100 µM (inactive) | > 100 µM (inactive) | > 100 µM (inactive) | > 100 µM (inactive) | > 100 µM (inactive) |
| Nc1nc(NCC2(CO)CC2)cc(=O)[nH]1 | > 100 µM (inactive) | > 100 µM (inactive) | > 100 µM (inactive) | > 100 µM (inactive) | > 100 µM (inactive) | > 100 µM (inactive) | > 100 µM (inactive) | > 100 µM (inactive) | > 100 µM (inactive) | > 100 µM (inactive) | > 100 µM (inactive) | > 100 µM (inactive) |  | > 100 µM (inactive) | > 100 µM (inactive) | > 100 µM (inactive) |  | > 100 µM (inactive) | > 100 µM (inactive) |
| N#Cc1c(N2CCN(c3ccc([N+](=O)[O-])cc3)CC2)[n+]([O-])c2ccc(Cl)cc2[n+]1[O-] | 0.264 µM (active) | 2.16 µM (inactive) | 1.71 µM (inactive) | 0.944 µM (active) | 0.427 µM (active) |  | 0.459 µM (active) | 1.56 µM (inactive) | 0.973 µM (active) | 1.18 µM (inactive) | 0.836 µM (active) | 1.91 µM (inactive) | 1.15 µM (inactive) | 6.38 µM (inactive) | 1.78 µM (inactive) | 2.36 µM (inactive) | 2.54 µM (inactive) | 1.18 µM (inactive) | 0.489 µM (active) |
| COc1ccc(C(OC(=O)[C@H](O[Si](C)(C)C(C)(C)C)[C@@H](NC(=O)c2ccccc2)c2ccccc2)c2ccc(OC)cc2)cc1 | > 100 µM (inactive) | > 100 µM (inactive) | > 100 µM (inactive) | 68.1 µM (inactive) | > 100 µM (inactive) |  | > 100 µM (inactive) |  | 65 µM (inactive) | > 100 µM (inactive) | > 100 µM (inactive) | 3.75 µM (inactive) | > 100 µM (inactive) | 77.1 µM (inactive) |  | > 100 µM (inactive) | > 100 µM (inactive) | > 100 µM (inactive) | > 100 µM (inactive) |
